Consider five compounds from ChEMBL document CHEMBL1201862, “PubChem BioAssay data set” (2004).

The source made the active and inactive calls. Where only a bound is given, the exact number is not on record here.

Broadly, the AC50 is the midpoint of the concentration-response curve, whichever way the signal moves. What is called EC50 is the concentration giving half of the maximal effect. By CC50 is commonly meant the concentration at which the toxic effect on the cells reaches its halfway point.

Experiment [1] deals with T1, Serine/threonine-protein phosphatase (Homo sapiens, UniProt Q9BPW0).
T1 sequence (Q9BPW0 whole entry): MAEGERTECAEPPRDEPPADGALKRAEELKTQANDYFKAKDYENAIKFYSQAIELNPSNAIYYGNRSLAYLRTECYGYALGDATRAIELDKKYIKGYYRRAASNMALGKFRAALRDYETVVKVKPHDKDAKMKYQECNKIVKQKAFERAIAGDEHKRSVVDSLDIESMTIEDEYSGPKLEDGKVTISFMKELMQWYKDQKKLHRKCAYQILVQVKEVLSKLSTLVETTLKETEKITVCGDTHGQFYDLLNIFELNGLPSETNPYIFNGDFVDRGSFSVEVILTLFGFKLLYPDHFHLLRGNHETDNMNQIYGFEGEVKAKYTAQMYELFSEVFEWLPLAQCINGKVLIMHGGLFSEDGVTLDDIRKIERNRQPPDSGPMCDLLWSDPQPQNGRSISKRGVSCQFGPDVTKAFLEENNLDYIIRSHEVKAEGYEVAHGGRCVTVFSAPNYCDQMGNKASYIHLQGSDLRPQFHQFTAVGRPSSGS
Nature of the experiment: inhibition of protein phosphatase 5 activity – biochemical, fluorescence, dose response (AID 2395).

Experiment [2] addresses T2, Sentrin-specific protease 8 (Homo sapiens, UniProt Q96LD8).
T2 sequence (Q96LD8 whole entry): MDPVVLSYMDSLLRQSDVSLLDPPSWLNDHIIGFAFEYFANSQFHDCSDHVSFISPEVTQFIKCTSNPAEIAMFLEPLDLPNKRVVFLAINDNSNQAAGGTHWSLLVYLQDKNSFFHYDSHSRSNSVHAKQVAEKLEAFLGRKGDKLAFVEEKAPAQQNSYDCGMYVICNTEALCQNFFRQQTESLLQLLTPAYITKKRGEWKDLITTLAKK
It is filed as functional.

Experiment [3] concerns the target Lysine-specific demethylase 4C (Homo sapiens, UniProt Q9H3R0). The experiment can be described thus: inhibition of JMJD2C H3K9me3 demethylation – biochemical, DELFIA europium, cherry-picked samples, dose response (AID 488835). It counts as functional.
In experiment [4] the target is Endoribonuclease toxin MazF (Escherichia coli K-12, UniProt P0AE70). The experiment can be described thus: substrate-only fluorescence increase artefacts – biochemical, single-stranded RNase substrate, counter-screen for MazEF activator project, dose response (AID 588502). It counts as functional. (In general: Counterscreens check selectivity or assay interference.)

The test system of the next experiment is Escherichia coli. Nature of the experiment: microbe, parasite or virus in culture.
The nature of experiment [5]: Counterscreen for antagonists of the orexin 1 receptor (OX1R; HCRTR1): Fluorescence-based cell-based high throughput dose response assay to identify antagonists of the parental CHO cell line. [Related pubchem assays (depositor defined):AID434989, AID435008, AID463079, AID485270, AID492963, AID492964, AID492965, AID493232, AID504699, AID504701]. It counts as functional.

Another experiment relates to BJ. Nature of the experiment: BJ-TERT fibroblast viability loss – cell-based, RAS-independent, luminescence, dose response (AID 1933). It counts as functional. To be noted: Homo sapiens.
The nature of experiment [6]: DRD fibroblast viability loss – cell-based, non-viral oncogenic, luminescence, dose response (AID 1934). Conditions: Homo sapiens. It is filed as functional.
Experiment [7] can be described thus: HEK-293T viability loss after treatment – luminescence, T-cell screen hits, cytotoxicity control for TCR NF-kB inhibitor project, dose response (AID 489026).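 Also: cells exposed to compound about 14 hours before the viability readout.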 It counts as functional, cell-based.
The subject of another experiment is Jurkat. The experiment can be described thus: SAR Analysis of small molecule inhibitors of T-cell specific antigen receptor-induced NF-kB activation in a Jurkat cell line using a luminescence assay - Set 2. [Related pubchem assays (depositor defined):AID435003, AID435012, AID465]. It counts as functional, cell-based. Conditions: Homo sapiens.
In another experiment the test system is Vero. The experiment can be described thus: cells. To be noted: Chlorocebus sabaeus. It is filed as functional.
The target in the next experiment is T3, Aminopeptidase N (Plasmodium falciparum FcB1/Columbia, UniProt O96935).
T3 sequence (O96935 whole entry): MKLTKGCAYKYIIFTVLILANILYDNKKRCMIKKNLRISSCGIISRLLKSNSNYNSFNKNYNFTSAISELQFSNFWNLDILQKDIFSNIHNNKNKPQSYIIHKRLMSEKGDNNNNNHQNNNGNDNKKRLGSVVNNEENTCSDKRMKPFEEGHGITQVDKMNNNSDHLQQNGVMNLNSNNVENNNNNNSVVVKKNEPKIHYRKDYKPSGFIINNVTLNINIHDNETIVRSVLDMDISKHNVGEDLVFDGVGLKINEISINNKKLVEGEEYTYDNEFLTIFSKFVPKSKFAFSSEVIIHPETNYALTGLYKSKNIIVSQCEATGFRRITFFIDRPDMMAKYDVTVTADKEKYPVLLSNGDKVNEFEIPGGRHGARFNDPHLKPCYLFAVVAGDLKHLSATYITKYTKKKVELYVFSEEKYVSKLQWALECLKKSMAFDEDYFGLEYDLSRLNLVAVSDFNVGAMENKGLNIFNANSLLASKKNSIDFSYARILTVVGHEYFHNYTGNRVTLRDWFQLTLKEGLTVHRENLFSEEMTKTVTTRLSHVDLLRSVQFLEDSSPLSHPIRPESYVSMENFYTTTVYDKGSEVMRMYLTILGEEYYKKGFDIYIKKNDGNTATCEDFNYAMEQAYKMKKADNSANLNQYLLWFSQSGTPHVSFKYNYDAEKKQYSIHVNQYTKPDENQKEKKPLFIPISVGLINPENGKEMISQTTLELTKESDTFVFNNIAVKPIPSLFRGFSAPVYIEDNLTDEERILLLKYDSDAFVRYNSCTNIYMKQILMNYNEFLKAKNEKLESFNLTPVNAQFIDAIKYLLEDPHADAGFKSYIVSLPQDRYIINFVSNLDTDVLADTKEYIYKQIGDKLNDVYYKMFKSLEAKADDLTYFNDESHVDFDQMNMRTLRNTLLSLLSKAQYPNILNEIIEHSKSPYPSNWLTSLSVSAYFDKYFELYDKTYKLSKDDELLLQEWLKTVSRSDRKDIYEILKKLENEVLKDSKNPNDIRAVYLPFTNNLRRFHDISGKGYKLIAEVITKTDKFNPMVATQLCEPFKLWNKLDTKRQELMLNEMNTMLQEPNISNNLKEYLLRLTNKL
The experiment can be described thus: malaria alanyl aminopeptidase activity blockers – biochemical, fluorogenic H-Leu-NHMec substrate, 1536-well (AID 1445). Set-up: species or system Plasmodium falciparum 3D7, 3D7.

The target in experiment [8] is Heat shock 70 kDa protein 1A (Homo sapiens, UniProt P0DMV8). The experiment can be described thus: small molecules displacing fluorescent ligand from Hsp70 – biochemical, fluorescence polarization, primary screen (AID 583). Background: Polarisation of emitted light reports the rotation of a fluorescent probe.
Experiment [9] concerns the target Small ubiquitin-related modifier 1 (Homo sapiens, UniProt P63165). The experiment can be described thus: SUMO1 protein interaction blockers, potency – biochemical, fluorescence polarization, uHTS hits, dose response (AID 624382). It is filed as functional. Conditions: read-out: IC50_Mean.
The next experiment addresses Fatty acid synthase (Homo sapiens, UniProt P49327). Nature of the experiment: inhibition of human FAS-TE enzyme activity – biochemical, endpoint fluorescence intensity, uHTS hits, dose response (AID 624327).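 Also: fluorescence from hydrolysis of an O-methyl fluorescein acyl ester substrate by the enzyme.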 It counts as functional.
The nature of experiment [10]: cytotoxicity toward Colo320 cells – cell-based, CellTiter-Glo luminescence, IC50, dose response (AID 1117334). It counts as functional. To be noted: COLO 320. In general terms: ATP-based viability assays read luminescence as a measure of living cells.
Experiment [11] is described as follows: rise of 4N DNA cells, HeLa – IC50, dose response (AID 1117351). It counts as functional, cell-based.
A short description of experiment [12]: cytotoxicity toward HT-29 cells – cell-based, CellTiter-Glo luminescence, IC50, dose response (AID 1117330). It is filed as functional.

Sequence of Fatty acid synthase (P49327 whole entry): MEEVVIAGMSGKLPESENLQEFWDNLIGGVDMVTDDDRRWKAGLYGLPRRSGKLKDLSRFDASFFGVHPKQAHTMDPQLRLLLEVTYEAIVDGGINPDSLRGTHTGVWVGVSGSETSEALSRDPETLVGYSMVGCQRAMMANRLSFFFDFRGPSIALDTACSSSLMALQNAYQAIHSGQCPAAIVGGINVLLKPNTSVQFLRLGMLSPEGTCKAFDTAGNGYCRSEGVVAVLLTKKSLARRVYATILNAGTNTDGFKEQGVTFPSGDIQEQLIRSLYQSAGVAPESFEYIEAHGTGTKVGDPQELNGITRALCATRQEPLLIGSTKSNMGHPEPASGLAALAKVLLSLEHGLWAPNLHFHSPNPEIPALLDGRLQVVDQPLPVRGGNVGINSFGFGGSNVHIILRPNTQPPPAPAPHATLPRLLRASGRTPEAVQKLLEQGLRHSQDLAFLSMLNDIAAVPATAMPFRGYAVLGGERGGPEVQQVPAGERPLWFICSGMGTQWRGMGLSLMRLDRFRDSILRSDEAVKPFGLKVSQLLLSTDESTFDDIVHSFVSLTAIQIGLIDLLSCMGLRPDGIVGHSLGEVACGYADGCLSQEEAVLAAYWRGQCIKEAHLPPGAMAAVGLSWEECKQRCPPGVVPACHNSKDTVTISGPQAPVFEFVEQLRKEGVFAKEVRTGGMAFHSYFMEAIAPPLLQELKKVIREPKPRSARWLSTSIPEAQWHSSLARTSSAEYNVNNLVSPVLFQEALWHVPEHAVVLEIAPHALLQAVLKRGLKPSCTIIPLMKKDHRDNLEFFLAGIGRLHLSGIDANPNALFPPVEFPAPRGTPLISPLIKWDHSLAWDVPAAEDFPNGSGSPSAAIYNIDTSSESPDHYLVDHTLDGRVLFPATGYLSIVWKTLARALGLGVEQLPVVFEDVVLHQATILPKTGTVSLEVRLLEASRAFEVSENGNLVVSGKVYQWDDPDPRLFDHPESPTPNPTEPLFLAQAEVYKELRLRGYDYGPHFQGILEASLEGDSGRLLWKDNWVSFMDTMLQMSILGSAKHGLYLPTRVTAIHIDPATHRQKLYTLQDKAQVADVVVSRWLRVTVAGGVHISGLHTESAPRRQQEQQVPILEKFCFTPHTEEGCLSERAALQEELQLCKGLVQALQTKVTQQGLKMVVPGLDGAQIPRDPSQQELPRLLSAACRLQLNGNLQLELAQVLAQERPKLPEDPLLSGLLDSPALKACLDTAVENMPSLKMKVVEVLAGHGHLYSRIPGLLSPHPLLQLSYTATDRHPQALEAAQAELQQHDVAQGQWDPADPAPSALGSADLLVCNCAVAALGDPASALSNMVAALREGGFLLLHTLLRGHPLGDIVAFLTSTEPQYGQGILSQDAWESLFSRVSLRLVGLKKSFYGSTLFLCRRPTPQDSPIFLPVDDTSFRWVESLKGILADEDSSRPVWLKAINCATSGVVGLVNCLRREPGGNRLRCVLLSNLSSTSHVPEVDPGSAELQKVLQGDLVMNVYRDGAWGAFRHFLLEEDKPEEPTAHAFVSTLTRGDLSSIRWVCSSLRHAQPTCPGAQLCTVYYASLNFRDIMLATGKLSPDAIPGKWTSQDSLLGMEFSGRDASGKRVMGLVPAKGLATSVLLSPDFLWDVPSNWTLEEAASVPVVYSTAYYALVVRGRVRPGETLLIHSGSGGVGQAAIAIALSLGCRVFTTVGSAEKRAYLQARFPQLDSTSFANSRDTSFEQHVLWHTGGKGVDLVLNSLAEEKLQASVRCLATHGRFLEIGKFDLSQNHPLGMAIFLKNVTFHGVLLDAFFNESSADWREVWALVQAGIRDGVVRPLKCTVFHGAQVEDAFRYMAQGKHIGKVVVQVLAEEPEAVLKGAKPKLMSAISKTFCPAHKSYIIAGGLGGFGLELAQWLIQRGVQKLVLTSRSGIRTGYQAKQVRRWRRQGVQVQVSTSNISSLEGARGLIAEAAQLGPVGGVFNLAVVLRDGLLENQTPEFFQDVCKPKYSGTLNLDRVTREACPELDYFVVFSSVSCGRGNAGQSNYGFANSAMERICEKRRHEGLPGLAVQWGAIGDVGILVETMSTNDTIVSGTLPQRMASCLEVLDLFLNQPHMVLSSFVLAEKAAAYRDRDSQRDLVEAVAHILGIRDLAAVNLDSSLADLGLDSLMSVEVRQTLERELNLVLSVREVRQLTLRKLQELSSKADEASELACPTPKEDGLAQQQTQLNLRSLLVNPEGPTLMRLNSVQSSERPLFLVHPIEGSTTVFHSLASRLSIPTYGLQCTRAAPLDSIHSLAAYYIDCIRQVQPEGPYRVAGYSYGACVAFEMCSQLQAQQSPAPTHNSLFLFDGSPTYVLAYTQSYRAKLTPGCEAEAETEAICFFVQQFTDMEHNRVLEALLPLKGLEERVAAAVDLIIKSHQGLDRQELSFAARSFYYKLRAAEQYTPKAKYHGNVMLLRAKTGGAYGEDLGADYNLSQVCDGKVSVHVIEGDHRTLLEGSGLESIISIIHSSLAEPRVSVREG
Sequence of Endoribonuclease toxin MazF (P0AE70 whole entry): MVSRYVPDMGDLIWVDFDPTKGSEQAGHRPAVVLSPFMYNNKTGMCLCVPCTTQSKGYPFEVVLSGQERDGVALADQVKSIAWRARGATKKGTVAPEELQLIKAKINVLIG
Sequence of Small ubiquitin-related modifier 1 (P63165 whole entry): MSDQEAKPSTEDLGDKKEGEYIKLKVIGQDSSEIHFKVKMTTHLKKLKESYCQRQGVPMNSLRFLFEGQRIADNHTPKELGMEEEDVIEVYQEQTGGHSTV
Sequence of Lysine-specific demethylase 4C (Q9H3R0 whole entry): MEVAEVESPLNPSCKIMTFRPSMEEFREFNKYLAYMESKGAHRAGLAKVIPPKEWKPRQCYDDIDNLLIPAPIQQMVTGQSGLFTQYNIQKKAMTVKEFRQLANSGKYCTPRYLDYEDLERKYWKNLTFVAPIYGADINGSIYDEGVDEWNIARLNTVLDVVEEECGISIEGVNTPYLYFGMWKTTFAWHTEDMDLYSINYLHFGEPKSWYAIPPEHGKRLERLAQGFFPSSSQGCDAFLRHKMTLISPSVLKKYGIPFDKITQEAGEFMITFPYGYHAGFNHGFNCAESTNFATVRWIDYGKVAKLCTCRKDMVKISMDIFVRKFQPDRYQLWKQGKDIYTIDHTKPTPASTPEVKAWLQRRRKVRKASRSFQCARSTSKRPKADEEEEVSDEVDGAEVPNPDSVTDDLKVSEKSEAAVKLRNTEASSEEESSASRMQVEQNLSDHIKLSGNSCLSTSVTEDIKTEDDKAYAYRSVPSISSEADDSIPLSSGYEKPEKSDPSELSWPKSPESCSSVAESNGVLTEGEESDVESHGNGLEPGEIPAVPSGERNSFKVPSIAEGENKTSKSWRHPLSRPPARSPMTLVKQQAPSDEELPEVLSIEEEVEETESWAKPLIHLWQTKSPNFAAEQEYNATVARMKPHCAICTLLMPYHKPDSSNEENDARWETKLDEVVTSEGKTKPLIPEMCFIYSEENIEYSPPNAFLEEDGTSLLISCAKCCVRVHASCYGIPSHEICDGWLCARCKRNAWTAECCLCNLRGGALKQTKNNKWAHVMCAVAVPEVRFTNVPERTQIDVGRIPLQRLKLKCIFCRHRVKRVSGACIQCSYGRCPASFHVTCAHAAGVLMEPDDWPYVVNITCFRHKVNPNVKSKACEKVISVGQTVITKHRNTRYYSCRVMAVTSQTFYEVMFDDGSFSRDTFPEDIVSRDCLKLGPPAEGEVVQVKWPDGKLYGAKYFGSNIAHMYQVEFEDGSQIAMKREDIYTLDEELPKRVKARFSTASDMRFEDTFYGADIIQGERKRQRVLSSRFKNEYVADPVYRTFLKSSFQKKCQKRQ
Sequence of Heat shock 70 kDa protein 1A (P0DMV8 whole entry): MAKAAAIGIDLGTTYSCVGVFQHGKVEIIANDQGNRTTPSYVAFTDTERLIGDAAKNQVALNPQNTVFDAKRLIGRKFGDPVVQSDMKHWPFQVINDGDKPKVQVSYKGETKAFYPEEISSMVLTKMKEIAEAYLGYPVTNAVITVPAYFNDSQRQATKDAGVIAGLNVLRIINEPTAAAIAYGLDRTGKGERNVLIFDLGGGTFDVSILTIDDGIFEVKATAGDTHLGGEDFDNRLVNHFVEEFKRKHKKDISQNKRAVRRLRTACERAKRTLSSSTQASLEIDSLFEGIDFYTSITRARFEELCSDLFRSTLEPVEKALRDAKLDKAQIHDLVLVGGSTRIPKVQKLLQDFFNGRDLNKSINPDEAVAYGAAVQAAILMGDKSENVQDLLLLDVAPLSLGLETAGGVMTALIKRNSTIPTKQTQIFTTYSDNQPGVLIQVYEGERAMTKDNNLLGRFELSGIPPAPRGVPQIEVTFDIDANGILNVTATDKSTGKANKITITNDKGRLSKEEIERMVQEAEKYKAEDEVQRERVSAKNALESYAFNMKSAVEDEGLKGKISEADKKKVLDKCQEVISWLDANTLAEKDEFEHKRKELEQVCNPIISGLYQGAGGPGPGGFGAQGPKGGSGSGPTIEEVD

As for `N#Cc1c(N2CCCCC2)nc(N)c2c(N)nc(SCC(=O)O)cc12`, the IC50 in experiment [1] is > 7.45 µM (active); in experiment [2] it was 10.6 µM (active). Further, the AC50 in [3] is 5.4 µM (active).
With `O=[N+]([O-])c1ccc(Sc2cccc[n+]2[O-])c2nonc12`, in experiment [4], the EC50 was > 99 µM (inactive). Besides, in the experiment on Escherichia coli, the AC50 is 8.5 µM (active).
As for `Oc1ccc(NC(=S)N=Nc2c(O)[nH]c3ccccc23)cc1`, the IC50 in [5] was > 49.8 µM (inactive).
Turning to `CCCC(=O)NC(c1ccc(C(C)C)cc1)c1ccc2cccnc2c1O` (stereo not drawn), the figures for the EC50 (in the experiment with BJ; in [6]) were 2.3 µM (active) and 2.35 µM (active), respectively. Besides, the IC50 in experiment [7] is > 80 µM (inactive); with Jurkat, 2.58 µM (active). Also, the CC50 in the experiment with Vero is 2.88 µM (active).
Consider `Oc1c(Cl)cc(Cl)c(Cl)c1Cc1c(O)c(Cl)cc(Cl)c1Cl` [HEXACHLOROPHENE], for which the IC50 was 58 µM (active) at Aminopeptidase N; 19.5 µM (active) in experiment [8]; 5.63 µM (active) in experiment [9]; 7.79 µM (active) on Fatty acid synthase; 0.0572 µM (active) in experiment [10]; > 10 µM (inactive) in [11]. In addition, the IC50 in experiment [12] was 0.46 µM (active).
